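A five-concentration, 48-hour dose response in 96-well plates underlies each endpoint, interpolated linearly between surrounding concentrations. GI50 = concentration required for 50% inhibition of growth.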 Activity calls are given as the source filed them. Rule as the data show it: active = GI50 up to about 1.1 µM and inactive = higher.
Columns and labels:
Assay in all cases: NCI tumour cell line growth inhibition, 48 h
HL-60 = test system: HL-60
NCI-H460 = test system: NCI-H460
SF-268 = test system: SF-268
A549 = test system: A549
OVCAR-8 = test system: OVCAR-8
OVCAR-5 = test system: OVCAR-5
NCI-H226 = test system: NCI-H226
TK-10 = test system: TK-10
RXF 393 = test system: RXF 393
SNB-75 = test system: SNB-75
CCRF-CEM = test system: CCRF-CEM
UO-31 = test system: UO-31
HT-29 = test system: HT-29
NCI-H522 = test system: NCI-H522
SNB-19 = test system: SNB-19
NCI/ADR-RES = test system: NCI/ADR-RES
PC-3 = test system: PC-3
MCF7 = test system: MCF7

## COC(=O)C1=C(O)c2cc(OC)c(OC)c(OC)c2C(c2ccc3c(c2)OCO3)[C@@H]1C(=O)OC (some centres not stated)
HL-60
  GI50: 1.74 µM (inactive)
NCI-H460
  GI50: 5.47 µM (inactive)
SF-268
  GI50: 4.28 µM (inactive)
A549
  GI50: 4.68 µM (inactive)
OVCAR-8
  GI50: 5.37 µM (inactive)
OVCAR-5
  GI50: > 100 µM (inactive)
NCI-H226
  GI50: 8.97 µM (inactive)
TK-10
  GI50: 7.18 µM (inactive)
RXF 393
  GI50: 2.29 µM (inactive)
SNB-75
  GI50: 4.07 µM (inactive)
CCRF-CEM
  GI50: 4.42 µM (inactive)
UO-31
  GI50: 6.08 µM (inactive)
HT-29
  GI50: 2.84 µM (inactive)

## CC(=O)C1=CCC2c3[nH]c4ccccc4c3CCN2C1 (configuration not stated)
HL-60
  GI50: 45.3 µM (inactive)
NCI-H460
  GI50: 45 µM (inactive)
NCI-H522
  GI50: 24.7 µM (inactive)
SF-268
  GI50: 69.2 µM (inactive)
SNB-19
  GI50: > 100 µM (inactive)
A549
  GI50: > 100 µM (inactive)
OVCAR-8
  GI50: 47.6 µM (inactive)
OVCAR-5
  GI50: > 100 µM (inactive)
NCI-H226
  GI50: > 100 µM (inactive)
TK-10
  GI50: > 100 µM (inactive)
RXF 393
  GI50: 35.8 µM (inactive)
SNB-75
  GI50: 15.1 µM (inactive)
CCRF-CEM
  GI50: 38.5 µM (inactive)
UO-31
  GI50: > 100 µM (inactive)
HT-29
  GI50: 31.3 µM (inactive)

## CCOc1ccc(NC2=NC(=O)C(CC(=O)Nc3ccc(Cl)cc3Cl)S2)cc1 (configuration not stated)
NCI-H460
  GI50: > 100 µM (inactive)
SF-268
  GI50: > 100 µM (inactive)
SNB-19
  GI50: > 100 µM (inactive)
A549
  GI50: > 100 µM (inactive)
OVCAR-8
  GI50: > 100 µM (inactive)
OVCAR-5
  GI50: > 100 µM (inactive)
TK-10
  GI50: > 100 µM (inactive)
SNB-75
  GI50: > 100 µM (inactive)
CCRF-CEM
  GI50: 21.6 µM (inactive)
UO-31
  GI50: > 100 µM (inactive)
HT-29
  GI50: > 100 µM (inactive)

## O=c1c2ccccc2oc2ccccc12.Oc1cccc2cccnc12
HL-60
  GI50: 0.67 µM (active)
NCI-H460
  GI50: 0.966 µM (active)
NCI-H522
  GI50: 12.9 µM (inactive)
SF-268
  GI50: 2.75 µM (inactive)
SNB-19
  GI50: 3.36 µM (inactive)
A549
  GI50: 2.63 µM (inactive)
OVCAR-8
  GI50: 2.36 µM (inactive)
SNB-75
  GI50: 2.29 µM (inactive)
CCRF-CEM
  GI50: 0.815 µM (active)
UO-31
  GI50: 2.31 µM (inactive)

## C[C@@H]1O[C@@H](O[C@H]2[C@H](Oc3cc(O)c4c(=O)cc(-c5ccc(O)cc5)oc4c3)O[C@H](CO)[C@@H](O)[C@@H]2O)[C@H](O)[C@H](O)[C@H]1O [RHOIFOLIN]
HL-60
  GI50: > 100 µM (inactive)
NCI-H460
  GI50: > 100 µM (inactive)
NCI-H522
  GI50: > 100 µM (inactive)
SF-268
  GI50: > 100 µM (inactive)
SNB-19
  GI50: > 100 µM (inactive)
A549
  GI50: > 100 µM (inactive)
OVCAR-8
  GI50: > 100 µM (inactive)
OVCAR-5
  GI50: > 100 µM (inactive)
TK-10
  GI50: > 100 µM (inactive)
SNB-75
  GI50: > 100 µM (inactive)
CCRF-CEM
  GI50: > 100 µM (inactive)
UO-31
  GI50: > 100 µM (inactive)
HT-29
  GI50: > 100 µM (inactive)

## O=C(O)c1ccc(/N=N/c2cc(S(=O)(=O)O)c3cccnc3c2O)cc1
HL-60
  GI50: > 100 µM (inactive)
NCI-H460
  GI50: > 100 µM (inactive)
SF-268
  GI50: > 100 µM (inactive)
SNB-19
  GI50: > 100 µM (inactive)
A549
  GI50: > 100 µM (inactive)
OVCAR-8
  GI50: > 100 µM (inactive)
OVCAR-5
  GI50: > 100 µM (inactive)
NCI-H226
  GI50: > 100 µM (inactive)
TK-10
  GI50: > 100 µM (inactive)
RXF 393
  GI50: > 100 µM (inactive)
SNB-75
  GI50: > 100 µM (inactive)
UO-31
  GI50: > 100 µM (inactive)
HT-29
  GI50: > 100 µM (inactive)

## CCOC(=O)N[C@H]1CCc2cc(O)c(OC)c(OC)c2-c2ccc(SC)c(=O)cc21
HL-60
  GI50: < 0.01 µM (active)
NCI-H460
  GI50: 0.0172 µM (active)
NCI-H522
  GI50: 0.0177 µM (active)
SF-268
  GI50: 0.0207 µM (active)
SNB-19
  GI50: 0.0282 µM (active)
A549
  GI50: 0.0289 µM (active)
OVCAR-8
  GI50: 0.0301 µM (active)
OVCAR-5
  GI50: 0.614 µM (active)
NCI-H226
  GI50: 0.266 µM (active)
TK-10
  GI50: 0.394 µM (active)
RXF 393
  GI50: < 0.01 µM (active)
SNB-75
  GI50: < 0.01 µM (active)
CCRF-CEM
  GI50: < 0.0139 µM (active)
UO-31
  GI50: 0.736 µM (active)
HT-29
  GI50: < 0.0135 µM (active)

## CCCCOC(=O)NC(=O)c1cn(CCSCCOC(=O)NCCCCCCNC(=O)OCCSCCn2cc(C(=O)NC(=O)OCCCC)c(=O)[nH]c2=O)c(=O)[nH]c1=O
HL-60
  GI50: > 100 µM (inactive)
NCI-H460
  GI50: > 100 µM (inactive)
NCI-H522
  GI50: 32.6 µM (inactive)
SF-268
  GI50: > 100 µM (inactive)
SNB-19
  GI50: 26.6 µM (inactive)
A549
  GI50: > 100 µM (inactive)
OVCAR-5
  GI50: > 100 µM (inactive)
TK-10
  GI50: 30.1 µM (inactive)
RXF 393
  GI50: 22.5 µM (inactive)
SNB-75
  GI50: 19 µM (inactive)
UO-31
  GI50: > 100 µM (inactive)
HT-29
  GI50: > 100 µM (inactive)

## O=C(O)CN(c1ccccc1)S(=O)(=O)c1ccc(Cl)cc1
HL-60
  GI50: > 100 µM (inactive)
NCI-H460
  GI50: > 100 µM (inactive)
NCI-H522
  GI50: > 100 µM (inactive)
SF-268
  GI50: > 100 µM (inactive)
SNB-19
  GI50: > 100 µM (inactive)
A549
  GI50: > 100 µM (inactive)
OVCAR-8
  GI50: > 100 µM (inactive)
OVCAR-5
  GI50: > 100 µM (inactive)
TK-10
  GI50: > 100 µM (inactive)
RXF 393
  GI50: > 100 µM (inactive)
SNB-75
  GI50: 59 µM (inactive)
CCRF-CEM
  GI50: > 100 µM (inactive)
UO-31
  GI50: > 100 µM (inactive)
HT-29
  GI50: > 100 µM (inactive)

## O=C(NCCN1CCOCC1)c1ccc(I)cc1
NCI/ADR-RES
  GI50: > 100 µM (inactive)
HL-60
  GI50: > 100 µM (inactive)
NCI-H460
  GI50: > 100 µM (inactive)
SF-268
  GI50: > 100 µM (inactive)
SNB-19
  GI50: > 100 µM (inactive)
A549
  GI50: > 100 µM (inactive)
OVCAR-8
  GI50: > 100 µM (inactive)
OVCAR-5
  GI50: > 100 µM (inactive)
NCI-H226
  GI50: > 100 µM (inactive)
TK-10
  GI50: > 100 µM (inactive)
PC-3
  GI50: > 100 µM (inactive)
SNB-75
  GI50: > 100 µM (inactive)
MCF7
  GI50: > 100 µM (inactive)
CCRF-CEM
  GI50: > 100 µM (inactive)
UO-31
  GI50: > 100 µM (inactive)
HT-29
  GI50: > 100 µM (inactive)

Source: ChEMBL document CHEMBL1201862, “PubChem BioAssay data set” (2004)
